Measured values reported in patent US20240158446A1, “CYCLIC COMPOUND HAVING SELECTIVE INHIBITORY ACTION ON KRAS OVER HRAS AND NRAS” (CHUGAI SEIYAKU KABUSHIKI KAISHA, priority 2021, published 2024).
Read-outs that look alike come from different tables or passages of the source. *1 amine or outer side, *2 acyl side, *3 side chain or, on linkers, in order; H or OH if unused. Where a SMILES comes first, the peptide text is derived from it. Bridges are numbered along the chain shown (N, C = ends). [ ]: non-standard residue; d: D form. The star is where a group is joined. hPhe(3-Cl-4-CF3) = N[C@@H](CCc1ccc(C(F)(F)F)c(Cl)c1)C(=O)O; X43 = CCCN([C@@H](Cc1ccccc1)C(=O)[*:2])[*:1]; NMePhe(4-Me) = CN[C@@H](Cc1ccc(C)cc1)C(=O)O; NMeGly(cPent) = CN[C@H](C(=O)O)C1CCCC1; NEtPhe = CCN[C@@H](Cc1ccccc1)C(=O)O; NMeD = CN[C@@H](CC(=O)O)C(=O)O; NMeL = CN[C@@H](CC(C)C)C(=O)O; Morpholide = C1CN(*)CCO1; NMeA = CN[C@@H](C)C(=O)O; Ac5c = NC1(C(=O)O)CCCC1; Aze = O=C(O)[C@@H]1CCN1; NEtG = CCNCC(=O)O; Sar = CNCC(=O)O

Assays:
[1] = target: GDP-bound KRAS wild-type protein (Homo sapiens, UniProt P01116); assay: Binding to KRAS by surface plasmon resonance (SPR), Single Cycle Kinetics; conditions: GDP-bound KRAS wild-type protein, read-out: KRAS KD
[2] = target: GDP-bound NRAS wild-type protein (Homo sapiens, UniProt P01111); assay: Binding to NRAS by surface plasmon resonance (SPR), Single Cycle Kinetics; conditions: for NRAS/KRAS (ratio of KD value with respect to NRAS to KD value with respect to KRAS) / NRAS/KRAS (ratio of KD value for NRAS to KD value for KRAS): GDP-bound NRAS wild-type protein vs GDP-bound KRAS wild-type protein; for NRAS/KRAS (ratio of KD value with respect to GDP-bound NRAS wild-type protein to KD value with respect to KRAS): SPR KD ratio NRAS/KRAS, class symbols
[3] = target: GDP-bound HRAS wild-type protein (Homo sapiens, UniProt P01112); assay: Binding to HRAS by surface plasmon resonance (SPR), Single Cycle Kinetics; conditions: for HRAS/KRAS (ratio of KD value with respect to HRAS to KD value with respect to KRAS) / HRAS/KRAS (ratio of KD value for HRAS to KD value for KRAS): GDP-bound HRAS wild-type protein vs GDP-bound KRAS wild-type protein; for HRAS/KRAS (ratio of KD value with respect to GDP-bound HRAS wild-type protein to KD value with respect to KRAS): SPR KD ratio HRAS/KRAS, class symbols
[4] = SPR Single Cycle Kinetics, 1:1 binding model

GDP-bound HRAS wild-type protein, sequence (P01112 whole entry): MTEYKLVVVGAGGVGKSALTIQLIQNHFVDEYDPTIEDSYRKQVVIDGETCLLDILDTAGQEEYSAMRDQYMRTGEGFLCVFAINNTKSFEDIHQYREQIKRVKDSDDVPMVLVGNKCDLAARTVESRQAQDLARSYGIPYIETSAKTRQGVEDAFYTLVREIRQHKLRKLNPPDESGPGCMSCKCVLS
GDP-bound KRAS wild-type protein, sequence (P01116 whole entry): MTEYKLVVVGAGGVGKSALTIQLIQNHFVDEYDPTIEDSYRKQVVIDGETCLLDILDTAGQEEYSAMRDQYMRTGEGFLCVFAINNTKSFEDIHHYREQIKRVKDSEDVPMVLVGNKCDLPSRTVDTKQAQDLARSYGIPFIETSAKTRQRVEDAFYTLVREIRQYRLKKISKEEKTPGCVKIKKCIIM
GDP-bound NRAS wild-type protein, sequence (P01111 whole entry): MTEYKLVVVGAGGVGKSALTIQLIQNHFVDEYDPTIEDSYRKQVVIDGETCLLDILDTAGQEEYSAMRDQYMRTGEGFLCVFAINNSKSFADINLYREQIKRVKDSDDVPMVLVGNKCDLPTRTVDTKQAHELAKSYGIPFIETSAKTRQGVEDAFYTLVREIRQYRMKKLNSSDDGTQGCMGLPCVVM

Row | Compound | Kd ([1]; SPR, Single Cycle Kinetics) [nM] | Kd [1, 4] [nM] | NRAS/KRAS (ratio of KD value for NRAS to KD value for KRAS) ([2]; SPR) | HRAS/KRAS (ratio of KD value for HRAS to KD value for KRAS) ([3]; SPR) | other results
1 | CCO[C@@H]1C[C@H]2C(=O)NC3(CC(C)(C)C3)C(=O)N(C)[C@@H](C3CCCC3)C(=O)N(C)[C@H](C(=O)N(C)C)CC(=O)N(C)[C@@H](CC(C)C)C(=O)N[C@@H]([C@@H](C)CC)C(=O)N(C)CC(=O)N(C)[C@H]3C/C=C\CCN(C3=O)[C@@H](Cc3ccc(C(F)(F)F)cc3)C(=O)N(C)CC(=O)N[C@@H](CCc3cc(F)c(C(F)(F)F)c(F)c3)C(=O)N2C1 [PP1650, (2S,8S,12R,14S,20S,23S,27S,30S,36S,38Z)-20-cyclopentyl-8-[2-[3,5-difluoro-4-(trifluoromethyl)phenyl]ethyl]-12-ethoxy-27-isobutyl-N,N,3′,3′,4,19,22,26,32,35-decamethyl-30-[(1S)-1-methylpropyl]-3,6,9,15,18,21,25,28,31,34,42-undecaoxo-2-[[4-(trifluoromethyl)phenyl]methyl]spiro[1,4,7,10,16,19,22,26,29,32,35-undecazatricyclo[34.5.1.0^10,14]dotetracont-38-ene-17,1′-cyclobutane]-23-carboxamide] | 0.057 |  |  |  | NRAS/KRAS (KD ratio) ([2]; ratio of KD for GDP-bound NRAS wild-type protein to KD for KRAS, SPR): A (a compound having 10 or more and less than 20 is denoted as A); HRAS/KRAS (KD ratio) ([3]; ratio of KD for GDP-bound HRAS wild-type protein to KD for KRAS, SPR): A (a compound having 10 or more and less than 20 is denoted as A)
2 | CC[C@H](C)[C@@H]1NC(=O)[C@H](CC(C)C)N(C)C(=O)C[C@@H](C(=O)N2CCOCC2)N(C)C(=O)[C@H](C2CCCC2)N(C)C(=O)C2(CCCC2)NC(=O)[C@H](C)N(CC)C(=O)[C@H](CCc2cc(F)c(C(F)(F)F)c(F)c2)NC(=O)CN(C)C(=O)[C@H](Cc2ccc(C(F)(F)F)cc2)N2CCCCC[C@@H](C2=O)N(C)C(=O)CN(C)C1=O [PP0515] |  | 29 |  |  | NRAS/KRAS (ratio of KD value with respect to NRAS to KD value with respect to KRAS) ([2]; SPR): B (a compound having 3 or more and less than 10 is denoted as B); HRAS/KRAS (ratio of KD value with respect to HRAS to KD value with respect to KRAS) ([3]; SPR): B (a compound having 3 or more and less than 10 is denoted as B)
3 | CCC[C@H]1C(=O)N[C@@H]([C@@H](C)CC)C(=O)N(C)CC(=O)N(C)[C@H]2C/C=C\CCN(C2=O)[C@@H](Cc2ccc(C(F)(F)F)cc2)C(=O)N(C)CC(=O)N[C@@H](CCc2ccc(C(F)(F)F)c(Cl)c2)C(=O)N2CCCC[C@H]2C(=O)NC2(CC(C)(C)C2)C(=O)N(C)[C@@H](C(CC)CC)C(=O)N(C)[C@H](C(=O)N(C)C)CC(=O)N1C [PP2928] |  | 4.8 |  |  | NRAS/KRAS (ratio of KD value with respect to GDP-bound NRAS wild-type protein to KD value with respect to KRAS) [2]: AA (a compound having 20 or more is denoted as AA); HRAS/KRAS (ratio of KD value with respect to GDP-bound HRAS wild-type protein to KD value with respect to KRAS) [3]: A (a compound having 10 or more and less than 20 is denoted as A)
4 | CC[C@H](C)[C@@H]1NC(=O)[C@H](CC(C)C)N(C)C(=O)C[C@@H](C(=O)N2CCOCC2)N(C)C(=O)[C@H](C2CCCC2)N(C)C(=O)C2(CCC2)NC(=O)[C@@H]2[C@@H](O)CCN2C(=O)[C@H](CCc2cc(F)c(C(F)(F)F)c(F)c2)NC(=O)CN(C)C(=O)[C@H](Cc2ccc(C(F)(F)F)cc2)N2CCCC[C@@H](C2=O)N(C)C(=O)CN(C)C1=O [PP0869] | 0.056 |  | B (a compound having 3 or more and less than 10 is denoted as B) | B (a compound having 3 or more and less than 10 is denoted as B) | 
5 | CCCN1C(=O)[C@@H]2CCN2C(=O)[C@H](C)N(C)C(=O)[C@H]([C@@H](C)CC)NC(=O)[C@H](CC(C)C)N(C)C(=O)C[C@@H](C(=O)N2CCOCC2)N(C)C(=O)[C@H](C2CCCC2)N(C)C(=O)C2(CCCC2)NC(=O)[C@@H]2CCCN2C(=O)[C@H](CCc2ccc(C(F)(F)F)c(Cl)c2)NC(=O)CN(C)C(=O)[C@@H]1Cc1ccccc1 [PP0216] ([NMeL]I[NMeA][Aze][X43][Sar][hPhe(3-Cl-4-CF3)]P[Ac5c][NMeGly(cPent)][NMeD]-Morpholide; lactam N-11) |  | 0.28 | C (A compound having a KD ratio of 0.1 or more and less than 3 is denoted as C) | B (a compound having 3 or more and less than 10 is denoted as B) | 
6 | CCC[C@H]1C(=O)N[C@@H]([C@@H](C)CC)C(=O)N(C)CC(=O)N(C)[C@H]2C/C=C\CCN(C2=O)[C@@H](Cc2ccc(C(F)(F)F)cc2)C(=O)N(C)CC(=O)N[C@@H](CCc2ccc(C(F)(F)F)c(OC)c2)C(=O)N2CC[C@H]2C(=O)NC2(CC(C)(C)C2)C(=O)N(C)[C@@H](C(CC)CC)C(=O)N(C)[C@H](C(=O)N(C)C)CC(=O)N1C [PP2936] |  | 2.7 |  |  | NRAS/KRAS (ratio of KD value with respect to GDP-bound NRAS wild-type protein to KD value with respect to KRAS) [2]: AA (a compound having 20 or more is denoted as AA); HRAS/KRAS (ratio of KD value with respect to GDP-bound HRAS wild-type protein to KD value with respect to KRAS) [3]: A (a compound having 10 or more and less than 20 is denoted as A)
7 | CCO[C@@H]1C[C@H]2C(=O)NC3(CC(C)(C)C3)C(=O)N(C)[C@@H](C(CC)CC)C(=O)N(C)[C@H](C(=O)N(C)C)CC(=O)N(C)[C@@H](CC(C)C)C(=O)N[C@@H]([C@@H](C)CC)C(=O)N(C)CC(=O)N(C)[C@H]3C/C=C\CCN(C3=O)[C@@H](Cc3ccc(C(F)(F)F)cc3)C(=O)N(C)CC(=O)N[C@@H](CCc3ccc(C(F)(F)F)c(Cl)c3)C(=O)N2C1 [PP2132] | 0.27 |  | AA (a compound having 20 or more is denoted as AA) | A (a compound having 10 or more and less than 20 is denoted as A) | 
8 | CC[C@H](C)[C@@H]1NC(=O)[C@H](CC(C)C)N(C)C(=O)C[C@@H](C(=O)N2CCOCC2)N(C)C(=O)[C@H](C2CCCC2)N(C)C(=O)C2(CCCC2)NC(=O)[C@@H]2CCCN2C(=O)[C@H](CCc2ccc(C(F)(F)F)c(Cl)c2)NC(=O)CN(CC)C(=O)[C@H](Cc2ccc(C)cc2)N(C)C(=O)[C@@H]2CCN2C(=O)[C@H](C)N(C)C1=O [PP0004] ([NMeL]I[NMeA][Aze][NMePhe(4-Me)][NEtG][hPhe(3-Cl-4-CF3)]P[Ac5c][NMeGly(cPent)][NMeD]-Morpholide; lactam N-11) |  | 2.4 | C (A compound having a KD ratio of 0.1 or more and less than 3 is denoted as C) | C (A compound having a KD ratio of 0.1 or more and less than 3 is denoted as C) | 
9 | CCO[C@@H]1C[C@H]2C(=O)NC3(CCC(F)(F)CC3)C(=O)N(C)[C@@H](C3CCCC3)C(=O)N(C)[C@H](C(=O)N3CCOCC3)CC(=O)N(C)[C@@H](CC(C)C)C(=O)N[C@@H]([C@@H](C)CC)C(=O)N(C)CC(=O)N(C)[C@H]3CCCCCN(C3=O)[C@@H](Cc3ccc(C(F)(F)F)cc3)C(=O)N(C)CC(=O)N[C@@H](CCc3cc(F)c(C(F)(F)F)c(F)c3)C(=O)N2C1 [PP0728] |  | 11 |  |  | NRAS/KRAS (ratio of KD value with respect to NRAS to KD value with respect to KRAS) ([2]; SPR): B (a compound having 3 or more and less than 10 is denoted as B); HRAS/KRAS (ratio of KD value with respect to HRAS to KD value with respect to KRAS) ([3]; SPR): B (a compound having 3 or more and less than 10 is denoted as B)
10 | CC[C@H](C)[C@@H]1NC(=O)[C@H](CC(C)C)N(C)C(=O)C[C@@H](C(=O)N2CCOCC2)N(C)C(=O)[C@H](C2CCCC2)N(C)C(=O)C2(CCCC2)NC(=O)[C@@H]2CCCN2C(=O)[C@H](CCc2ccc(C(F)(F)F)c(Cl)c2)NC(=O)CN(C)C(=O)[C@H](Cc2ccccc2)N(CC)C(=O)CN(C)C(=O)CN(C)C1=O [PP0210] ([NMeL]I[Sar][Sar][NEtPhe][Sar][hPhe(3-Cl-4-CF3)]P[Ac5c][NMeGly(cPent)][NMeD]-Morpholide; lactam N-11) |  | 0.52 | C (A compound having a KD ratio of 0.1 or more and less than 3 is denoted as C) | C (A compound having a KD ratio of 0.1 or more and less than 3 is denoted as C) | 
11 | CCO[C@@H]1C[C@H]2C(=O)NC3(CCC3)C(=O)N(C)[C@@H](C3CCCC3)C(=O)N(C)[C@H](C(=O)N(C)C)CC(=O)N(C)[C@H]3CCCCCc4ccc(cc4)C[C@@H](C(=O)N(C)CC(=O)N[C@@H](CCc4cc(F)c(C(F)(F)F)c(F)c4)C(=O)N2C1)N1CC/C=C\C[C@@H](C1=O)N(C)C(=O)CN(C)C(=O)[C@H]([C@@H](C)CC)NC3=O [PP2261] | 0.18 |  | A (a compound having 10 or more and less than 20 is denoted as A) | A (a compound having 10 or more and less than 20 is denoted as A) | 
12 | CCC[C@H]1C(=O)N[C@@H]([C@@H](C)CC)C(=O)N(C)CC(=O)N(C)[C@H]2C/C=C\CCN(C2=O)[C@@H](Cc2ccc(C(F)(F)F)cc2)C(=O)N(C)CC(=O)N[C@@H](CCc2ccc(C(F)(F)F)c(OC)c2)C(=O)N2CCCC[C@H]2C(=O)NC2(CC(C)(C)C2)C(=O)N(C)[C@@H](C(CC)CC)C(=O)N(C)[C@H](C(=O)N(C)C)CC(=O)N1C [PP2934] |  | 2 |  |  | NRAS/KRAS (ratio of KD value with respect to GDP-bound NRAS wild-type protein to KD value with respect to KRAS) [2]: AA (a compound having 20 or more is denoted as AA); HRAS/KRAS (ratio of KD value with respect to GDP-bound HRAS wild-type protein to KD value with respect to KRAS) [3]: A (a compound having 10 or more and less than 20 is denoted as A)
